Key:
[1] = target: T1, Streptococcus pneumoniae NanA sialidase CBM (SpCBM, SEQ ID NO: 4) variant Im23 Y292E (Streptococcus pneumoniae, UniProt P62575, Y292E); test: Surface plasmon resonance (SPR, Biacore) binding affinity to sialyllactose; parameters: key to Biacore (binding affinity to sialyllactose): Green: green indicates that the variant closely resembles its WT counterpart for that particular characteristic; Green’: pale green (green’) or yellow indicate increasing degrees of differences; Yellow: pale green (green’) or yellow indicate increasing degrees of differences; Orange: Red or orange indicate significant differences; Red or orange indicate significant differences
T1 construct: SpCBM, residues 121-305 of S. pneumoniae NanA sialidase; 6His (pHISTEV) (cleaved yes); made in house; host or cells: E. coli
Source text: (§1) The 13 soluble proteins were expressed in E. coli and purified by immobilized metal affinity chromatography (IMAC), followed by TEV digestion to remove the 6His-tag, then reverse IMAC and size exclusion chromatography (SEC).
(§2) Ten purified domains (WTSp, Im19, Im20, Im21, Im22, Im23, WTTD, Im24, Im26 and Im27) were further characterized by:
(§3) (iv) Surface plasmon resonance (SPR) to measure binding affinity to sialyllactose

[2] = target: T2, Sp2CBMTD (SpOrig, SEQ ID NO: 7) variant HEX6 V239A/V246G/S342D/R403K, SEQ ID NO: 8 (Streptococcus pneumoniae, UniProt P62575, V239A/V246G); test: Biacore characterization of hexameric Sp2CBMTD variants; type: binding, Streptococcus pneumoniae (CBM); Pseudomonas aeruginosa (TD); parameters: key: Green: green indicates that the variant closely resembles its WT counterpart for that particular characteristic; Green’: pale green (green’) or yellow indicate increasing degrees of differences; Yellow: pale green (green’) or yellow indicate increasing degrees of differences; Orange: Red or orange indicate significant differences; Red or orange indicate significant differences; conditions: qualitative colour code vs WT hexamer
T2 construct: trimerises; pHISTEV 6His, E. coli
Source text: as §3

[3] = target: T3, Sp2CBMTD (SpOrig, SEQ ID NO: 7) variant HEX17 A162P/V239A/V246G/S342D/R403K, SEQ ID NO: 9 (Streptococcus pneumoniae, UniProt P62575, A162P/V239A/V246G); test: as above; type: binding, Streptococcus pneumoniae (CBM); Pseudomonas aeruginosa (TD); parameters: key: Green: green indicates that the variant closely resembles its WT counterpart for that particular characteristic; Green’: pale green (green’) or yellow indicate increasing degrees of differences; Yellow: pale green (green’) or yellow indicate increasing degrees of differences; Orange: Red or orange indicate significant differences; Red or orange indicate significant differences; conditions: qualitative colour code vs WT hexamer
T3 construct: PDB 2w38); trimerises; pHISTEV 6His, E. coli
Source text: as §3

[4] = target: T4, Streptococcus pneumoniae NanA sialidase CBM (SpCBM, SEQ ID NO: 4) variant Im21 V246G (Streptococcus pneumoniae, UniProt P62575, V246G); test: Surface plasmon resonance (SPR, Biacore) binding affinity to sialyllactose; parameters: key: Green: green indicates that the variant closely resembles its WT counterpart for that particular characteristic; Green’: pale green (green’) or yellow indicate increasing degrees of differences; Yellow: pale green (green’) or yellow indicate increasing degrees of differences; Orange: Red or orange indicate significant differences; Red or orange indicate significant differences; conditions: qualitative colour code vs WT
T4 construct: SpCBM, residues 121-305 of S. pneumoniae NanA sialidase; 6His (pHISTEV) (cleaved yes); made in house; host or cells: E. coli
Source text: as §1, §2, §3

[5] = target: T5, Streptococcus pneumoniae NanA sialidase CBM (SpCBM, SEQ ID NO: 4) variant Im20 V239T (Streptococcus pneumoniae, UniProt P62575, V239T); test: as above; parameters: key: Green: green indicates that the variant closely resembles its WT counterpart for that particular characteristic; Green’: pale green (green’) or yellow indicate increasing degrees of differences; Yellow: pale green (green’) or yellow indicate increasing degrees of differences; Orange: Red or orange indicate significant differences; Red or orange indicate significant differences; conditions: qualitative colour code vs WT
T5 construct: SpCBM, residues 121-305 of S. pneumoniae NanA sialidase; 6His (pHISTEV) (cleaved yes); made in house; host or cells: E. coli
Source text: as §1, §2, §3

[6] = target: T6, Streptococcus pneumoniae NanA sialidase CBM (SpCBM, SEQ ID NO: 4) variant Im19 V239A (Streptococcus pneumoniae, UniProt P62575, V239A); test: as above; parameters: key: Green: green indicates that the variant closely resembles its WT counterpart for that particular characteristic; Green’: pale green (green’) or yellow indicate increasing degrees of differences; Yellow: pale green (green’) or yellow indicate increasing degrees of differences; Orange: Red or orange indicate significant differences; Red or orange indicate significant differences; conditions: qualitative colour code vs WT
T6 construct: SpCBM, residues 121-305 of S. pneumoniae NanA sialidase; 6His (pHISTEV) (cleaved yes); made in house; host or cells: E. coli
Source text: as §1, §2, §3

[7] = target: T7, Streptococcus pneumoniae NanA sialidase CBM (SpCBM, residues 121-305), wild type WTSp, SEQ ID NO: 4 (Streptococcus pneumoniae, UniProt P62575); test: as above; parameters: key: Green: green indicates that the variant closely resembles its WT counterpart for that particular characteristic; Green’: pale green (green’) or yellow indicate increasing degrees of differences; Yellow: pale green (green’) or yellow indicate increasing degrees of differences; Orange: Red or orange indicate significant differences; Red or orange indicate significant differences; conditions: qualitative colour code vs WT
T7 construct: SpCBM, residues 121-305 of S. pneumoniae NanA sialidase; 6His (pHISTEV) (cleaved yes); made in house; host or cells: E. coli
Source text: as §1, §2, §3

[8] = target: T8, Streptococcus pneumoniae NanA sialidase CBM (SpCBM, SEQ ID NO: 4) variant Im22 I286A (Streptococcus pneumoniae, UniProt P62575, I286A); test: as above; parameters: key: Green: green indicates that the variant closely resembles its WT counterpart for that particular characteristic; Green’: pale green (green’) or yellow indicate increasing degrees of differences; Yellow: pale green (green’) or yellow indicate increasing degrees of differences; Orange: Red or orange indicate significant differences; Red or orange indicate significant differences; conditions: qualitative colour code vs WT
T8 construct: SpCBM, residues 121-305 of S. pneumoniae NanA sialidase; 6His (pHISTEV) (cleaved yes); made in house; host or cells: E. coli
Source text: as §1, §2, §3

CC(=O)N[C@H]1[C@H]([C@H](O)[C@H](O)CO)O[C@@](O[C@H]2[C@@H](O)[C@@H](CO)O[C@@H](O[C@H]3[C@H](O)[C@@H](O)C(O)O[C@@H]3CO)[C@@H]2O)(C(=O)O)C[C@@H]1O (stereo partly drawn) [sialyllactose]
ligand affinity ([1]; in words, compared with WT): reduced ligand affinity | Biacore (binding affinity to sialyllactose) ([1]; qualitative colour code vs WT): Yellow | Biacore [2]: Green | Biacore [3]: Green | Biacore (binding affinity to sialyllactose) [4]: Green | Biacore (binding affinity to sialyllactose) [5]: Green | Biacore (binding affinity to sialyllactose) [6]: Green | Biacore (binding affinity to sialyllactose) [7]: Green | Biacore (binding affinity to sialyllactose) [8]: Green
